Where two headings read alike, the source gives them in different places.

The values that follow come from patent US20140274688A1, “MOLECULES HAVING CERTAIN PESTICIDAL UTILITIES, AND INTERMEDIATES, COMPOSITIONS, AND PROCESSES RELATED THERETO” (DOW AGROSCIENCES LLC, priority 2013, published 2014).

Data set [1] deals with Beet Armyworm (Spodoptera exigua) ("BAW"). The data set can be described thus: Bioassay on Beet Armyworm (BAW), 128-well diet tray assay, percent mortality. The format is in vivo. The settings on record: for pest or weed control at 50 µg/cm2: Spodoptera exigua, read-out: BAW; for BAW rating (percent mortality class): Beet Armyworm, 128-well diet tray assay. An outline of the steps: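 Larvae in covered diet trays held at 25 °C, 14:10 light-dark, for five to seven days. Percent mortality scored per well and averaged over eight wells per treatment.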

Data set [2] relates to Cabbage Looper (Trichoplusia ni) ("CL"). The data set can be described thus: Bioassay on Cabbage Looper (CL), 128-well diet tray assay, percent mortality. The format is in vivo. The settings on record: for pest or weed control at 50 µg/cm2: Trichoplusia ni, read-out: CL; for CL rating (percent mortality class): Cabbage Looper, 128-well diet tray assay. The method in brief: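 Larvae held in covered diet trays at 25 °C, 14:10 light-dark, for five to seven days. Percent mortality scored per well and averaged over eight wells.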

Data set [3] has as its system Yellow Fever Mosquito "YFM" (Aedes aegypti). The settings on record: rating of mortality, Yellow Fever Mosquito.

Take `CCCc1ccc(C)cc1N1C(=O)CS/C1=N\C(=O)NCCc1ccc(-c2ncn(-c3ccc(OC(F)(F)F)cc3)n2)cc1` [P29, (Z)-1-(3-(5-methyl-2-propylphenyl)-4-oxothiazolidin-2-ylidene)-3-(4-(1-(4-(trifluoromethoxy)phenyl)-1H-1,2,4-triazol-3-yl)phenethyl)urea]: the pest or weed control at 50 µg/cm2 in data set [1] and in data set [2] was 50 to 100% each time. The YFM result in data set [3] (Table ABC (P)) is on record as “A (80-100)”.

On to `CCc1cccc(C)c1N1C(=O)CS/C1=N\C(=O)NCCc1ccc(-c2ncn(-c3ccc(OC(F)(F)F)cc3)n2)cc1` [P50, (Z)-1-(3-(2-ethyl-6-methylphenyl)-4-oxothiazolidin-2-ylidene)-3-(4-(1-(4-(trifluoromethoxy)phenyl)-1H-1,2,4-triazol-3-yl)phenethyl)urea], for which the pest or weed control at 50 µg/cm2 in data set [1] and in data set [2] was 50 to 100% each time. Moreover, the YFM result in data set [3] (Table ABC (P)) is “A (80-100)”.

Turning to `Cc1ccc(C(C)C)c(N2C(=O)C(C)S/C2=N\C(=O)NCCc2ccc(-c3ncn(-c4ccc(OC(F)(F)F)cc4)n3)cc2)c1` (centres unmarked) [P57, (Z)-1-(3-(2-isopropyl-5-methylphenyl)-5-methyl-4-oxothiazolidin-2-ylidene)-3-(4-(1-(4-(trifluoromethoxy)phenyl)-1H-1,2,4-triazol-3-yl)phenethyl)urea], the pest or weed control at 50 µg/cm2 in data set [1] and in data set [2] was 50 to 100% throughout. Further, the YFM entry in data set [3] (Table ABC (P)) is “A (80-100)”.

Consider `Cc1ccc(N2C(=O)CS/C2=N\C(=O)NCCCCc2ccc(-c3ncn(-c4ccc(OC(F)(F)F)cc4)n3)cc2)c(C(C)C)c1` [P154, (Z)-1-(3-(2-isopropyl-4-methylphenyl)-4-oxothiazolidin-2-ylidene)-3-(4-(4-(1-(4-(trifluoromethoxy)phenyl)-1H-1,2,4-triazol-3-yl)phenyl)butyl)urea], for which the pest or weed control at 50 µg/cm2 in data set [1] and in data set [2] was 50 to 100% each time. Also, in data set [3] (Table ABC (P)), the YFM entry is recorded as “B (More than 0-Less than 80)”.

For `Cc1ccccc1N1C(=O)CS/C1=N\C(=O)NCCCCc1ccc(-c2ncn(-c3ccc(OC(F)(F)F)cc3)n2)cc1` [P144, (Z)-1-(4-oxo-3-(o-tolyl)thiazolidin-2-ylidene)-3-(4-(4-(1-(4-(trifluoromethoxy)phenyl)-1H-1,2,4-triazol-3-yl)phenyl)butyl)urea], the pest or weed control at 50 µg/cm2 in data set [1] and in data set [2] was 50 to 100% in each case. In data set [3] (Table ABC (P)), the YFM entry is “A (80-100)”.

As to `CC(C)(C)c1ccccc1N1C(=O)CS/C1=N\C(=O)NCCc1ccc(-c2ncn(-c3ccc(OC(F)(F)F)cc3)n2)cc1` [P30, (Z)-1-(3-(2-(tert-butyl)phenyl)-4-oxothiazolidin-2-ylidene)-3-(4-(1-(4-(trifluoromethoxy)phenyl)-1H-1,2,4-triazol-3-yl)phenethyl)urea], the pest or weed control at 50 µg/cm2 in data set [1] and in data set [2] was 50 to 100% in each case. Further, the YFM result in data set [3] (Table ABC (P)) is on record as “A (80-100)”.

As for `CCc1cccc(C)c1N1C(=O)CS/C1=N\C(=O)NC(C)Cc1ccc(-c2ncn(-c3ccc(OC(F)(F)F)cc3)n2)cc1` (centres unmarked) [P42, (Z)-1-(3-(2-ethyl-6-methylphenyl)-4-oxothiazolidin-2-ylidene)-3-(1-(4-(1-(4-(trifluoromethoxy)phenyl)-1H-1,2,4-triazol-3-yl)phenyl)propan-2-yl)urea], the pest or weed control at 50 µg/cm2 in data set [1] and in data set [2] was 50 to 100% each time. For the same compound, in data set [3] (Table ABC (P)), the YFM result is listed as “A (80-100)”.

For `CCC(CNC(=O)/N=C1\SCC(=O)N1c1ccccc1C(C)C)c1ccc(-c2ncn(-c3ccc(OC(F)(F)F)cc3)n2)cc1` (centres unmarked) [P209, (Z)-1-(3-(2-isopropylphenyl)-4-oxothiazolidin-2-ylidene)-3-(2-(4-(1-(4-(trifluoromethoxy)phenyl)-1H-1,2,4-triazol-3-yl)phenyl)butyl)urea], the pest or weed control at 50 µg/cm2 in data set [1] is 50 to 100%. In addition, the YFM result in data set [3] (Table ABC (P)) is recorded as “A (80-100)”.

In the case of `CCC(CNC(=O)/N=C1\SCC(=O)N1c1cc(OC)ccc1C(C)C)c1ccc(-c2ncn(-c3ccc(OC(F)(F)F)cc3)n2)cc1` (centres unmarked) [P683, (Z)-1-(3-(2-isopropyl-5-methoxyphenyl)-4-oxothiazolidin-2-ylidene)-3-(2-(4-(1-(4-(trifluoromethoxy)phenyl)-1H-1,2,4-triazol-3-yl)phenyl)butyl)urea], the pest or weed control at 50 µg/cm2 in data set [1] was 50 to 100%. For the same compound, the YFM result in data set [3] (Table ABC (P)) is “A (80-100)”.

`CCc1cccc(C)c1NC(=S)NC(=O)NCCCCc1ccc(-c2ncn(-c3ccc(OC(F)(F)F)cc3)n2)cc1` [PC153, 1-[(2-ethyl-6-methyl-phenyl)carbamothioyl]-3-[4-[4-[1-[4-(trifluoromethoxy)phenyl]-1,2,4-triazol-3-yl]phenyl]butyl]urea]: the YFM result in data set [3] (Table ABC (PC)) is given as “B (More than 0-Less than 80)”.

For `Cc1ccccc1N1C(=O)CS/C1=N\C(=O)NCCCc1ccc(-c2ncn(-c3ccc(OC(F)(F)F)cc3)n2)cc1` [P92, (Z)-1-(4-oxo-3-(o-tolyl)thiazolidin-2-ylidene)-3-(3-(4-(1-(4-(trifluoromethoxy)phenyl)-1H-1,2,4-triazol-3-yl)phenyl)propyl)urea], the pest or weed control at 50 µg/cm2 in data set [1] and in data set [2] was 50 to 100% each time.

In the case of `CC(C)c1ccccc1NC(=S)NC(=O)NCc1ccc(-c2ncn(-c3ccc(OC(F)(F)C(F)(F)F)cc3)n2)cc1` [F15, N-(4-{1-[4-(pentafluoroethoxy)phenyl]-1H-1,2,4-triazol-3-yl}benzyl)-N′-[2-(propan-2-yl)phenyl]dicarbonimidothioic diamide], in data set [1], the “BAW rating (percent mortality class)” value is listed as “A (50-100)”. The “CL rating (percent mortality class)” value in data set [2] is listed as “A (50-100)”.

`COc1ccc(C(C)C)c(N2C(=O)CS/C2=N\C(=O)NCCCCc2cccc(-c3ncn(-c4ccc(OC(F)(F)F)cc4)n3)c2)c1` [P182, (Z)-1-(3-(2-isopropyl-5-methoxyphenyl)-4-oxothiazolidin-2-ylidene)-3-(4-(3-(1-(4-(trifluoromethoxy)phenyl)-1H-1,2,4-triazol-3-yl)phenyl)butyl)urea]: the pest or weed control at 50 µg/cm2 in data set [1] and in data set [2] was 50 to 100% each time.

As for `COc1ccc(NC(=S)NC(=O)NC2CC2c2ccc(-c3ncn(-c4ccc(OC(F)(F)F)cc4)n3)cc2)c(C)c1` (centres unmarked) [F26], in data set [1], the “BAW rating (percent mortality class)” value is recorded as “A (50-100)”. In addition, in data set [2], the “CL rating (percent mortality class)” value is given as “A (50-100)”.

As for `CCCc1ccccc1N1C(=O)CS/C1=N\C(=O)NC1CC1c1ccc(-c2ncn(-c3ccc(OC(F)(F)F)cc3)n2)cc1` (centres unmarked) [F30, (Z)-1-(4-oxo-3-(2-propylphenyl)thiazolidin-2-ylidene)-3-(2-(4-(1-(4-(trifluoromethoxy)phenyl)-1H-1,2,4-triazol-3-yl)phenyl)cyclopropyl)urea], the “BAW rating (percent mortality class)” value in data set [1] is listed as “A (50-100)”. Moreover, the “CL rating (percent mortality class)” value in data set [2] is on record as “A (50-100)”.

With `COc1ccc(N2C(=O)CS/C2=N\C(=O)NCCCc2ccc(-c3ncn(-c4ccc(OC(F)(F)F)cc4)n3)cc2)c(C)c1` [P105, (Z)-1-(3-(4-methoxy-2-methylphenyl)-4-oxothiazolidin-2-ylidene)-3-(3-(4-(1-(4-(trifluoromethoxy)phenyl)-1H-1,2,4-triazol-3-yl)phenyl)propyl)urea], the pest or weed control at 50 µg/cm2 in data set [1] and in data set [2] was 50 to 100% in each case.

Take `COc1ccc(N2C(=O)CS/C2=N\C(=O)NCCCc2cccc(-c3ncn(-c4ccc(OC(F)(F)F)cc4)n3)c2)c(C)c1` [P131, (Z)-1-(3-(4-methoxy-2-methylphenyl)-4-oxothiazolidin-2-ylidene)-3-(3-(3-(1-(4-(trifluoromethoxy)phenyl)-1H-1,2,4-triazol-3-yl)phenyl)propyl)urea]: the pest or weed control at 50 µg/cm2 in data set [1] and in data set [2] was 50 to 100% each time.

In the case of `Cc1ccc(N2C(=O)CS/C2=N\C(=O)NCc2ccc(-c3ncn(-c4ccc(OC(F)(F)F)cc4)n3)cc2)c(C(C)C)c1` [P5, (Z)-1-(3-(2-isopropyl-4-methylphenyl)-4-oxothiazolidin-2-ylidene)-3-(4-(1-(4-(trifluoromethoxy)phenyl)-1H-1,2,4-triazol-3-yl)benzyl)urea], the pest or weed control at 50 µg/cm2 in data set [1] and in data set [2] was 50 to 100% each time.

`CC(C)c1ccccc1N1C(=O)CS/C1=N\C(=O)NCCCCc1ccc(-c2ncn(-c3ccc(OC(F)(F)F)cc3)n2)cc1` [P146, (Z)-1-(3-(2-isopropylphenyl)-4-oxothiazolidin-2-ylidene)-3-(4-(4-(1-(4-(trifluoromethoxy)phenyl)-1H-1,2,4-triazol-3-yl)phenyl)butyl)urea]: the pest or weed control at 50 µg/cm2 in data set [1] and in data set [2] was 50 to 100% each time.

On to `CC(C)c1cc(F)ccc1N1C(=O)CS/C1=N\C(=O)NCc1ccc(-c2ncn(-c3ccc(OC(F)(F)F)cc3)n2)cc1` [P3, (Z)-1-(3-(4-fluoro-2-isopropylphenyl)-4-oxothiazolidin-2-ylidene)-3-(4-(1-(4-(trifluoromethoxy)phenyl)-1H-1,2,4-triazol-3-yl)benzyl)urea], for which the pest or weed control at 50 µg/cm2 in data set [1] and in data set [2] was 50 to 100% in each case.

Take `CC(C)c1cc(F)ccc1N1C(=O)CS/C1=N\C(=O)NCCCc1cccc(-c2ncn(-c3ccc(OC(F)(F)F)cc3)n2)c1` [P129, (Z)-1-(3-(4-fluoro-2-isopropylphenyl)-4-oxothiazolidin-2-ylidene)-3-(3-(3-(1-(4-(trifluoromethoxy)phenyl)-1H-1,2,4-triazol-3-yl)phenyl)propyl)urea]: the pest or weed control at 50 µg/cm2 in data set [1] and in data set [2] was 50 to 100% in each case.

With `CC(C)c1ccccc1N1C(=O)CS/C1=N\C(=O)NCc1ccc(-c2ncn(-c3ccc(C(F)(F)F)cc3)n2)cc1` [P14, (Z)-1-(3-(2-isopropylphenyl)-4-oxothiazolidin-2-ylidene)-3-(4-(1-(4-(trifluoromethyl)phenyl)-1H-1,2,4-triazol-3-yl)benzyl)urea], the pest or weed control at 50 µg/cm2 in data set [1] and in data set [2] was 50 to 100% each time.
